For one assay, the system named is A549 cells. The assay is described as follows: Inhibition of LPS-induced inflammatory cytokine gene expression, RT-PCR, A549 cells. It is filed as cell-based, human. The following applies: 5 μg/ml LPS, peptide 10, 50, 100, 500 μM, 3 hours, RT-PCR (FIG. 2). How it is done:
A549 cells (human alveolar basal epithelial cells) were seeded at 3×10^5 cells/well in a 6-well plate and used in the experiment. After culturing for 1 day with a culture medium containing 10% FBS, the culture medium was replaced with a culture medium without containing FBS to induce starvation for 4 hours. A normal group without being treated with any substances, a group treated with 5 μg/ml of LPS (Sigma Aldrich) (negative control group), groups treated with 5 μg/ml of LPS and the peptide of Production Example 1 (10, 50, 100, 500 μM), and a group treated with 5 μg/ml of LPS and 10 μM of Dexamethasone (DEX) (positive control group) were treated with active substances and drugs respectively, and then RNA was extracted after 3 hours to carry out RT-PCR. RNA was extracted from the A549 cells in the above-described treatment group using an easy-BLUE™ Total RNA extraction kit (Qiagen, Germany). The extracted RNA was converted into cDNA with RT-PCR premix (iNtRON Biotechnology, Seongnam, Korea). After preparing a reaction mixture with PCR premix (iNtRON Biotechnology, Seongnam, Korea) and primers for each gene, PCR was carried out using a PCR machine (Eppendorf, Germany). Next, the mRNA expression pattern was determined by agarose gel electrophoresis. The base sequences of the primers used in the experiment are listed in [Table 2] below.

Assay [1] relates to BALB/c mice. Description: BLM-induced pulmonary fibrosis model, cell counts in bronchoalveolar lavage fluid. The assay is classed as in vivo. The following applies: BALB/c male mice, peptide 1 mg/mouse intranasal three times a week for 14 days, 21st day (FIG. 13b). How it is done:
(§1) As shown in [Table 6] below, 8-week-old BALB/c male mice were divided into 4 groups of 5 mice each. On the 1st day, a Bleomycin solution ([…]/50 μl/mouse) was administered through the oropharynx to carry out one time of induction with BLM. Then, from the 7th day, the peptide of Production Example 1 (1 mg/mouse) was administered intranasally three times a week for 14 days, and Pirfeninone (2 mg/mouse) for a positive control group was administered orally three times a week for 14 days. On the 21st day of the induction with BLM, mice were sacrificed to obtain the bronchoalveolar lavage fluid and the lung tissue, which were used in the next analysis.
The mouse subjected to the animal experiment was anesthetized, and then the treatment area was disinfected with 70% ethanol. […] The separated cells were resuspended in 0.5 ml of PBS, subsequently diluted with trypan blue solution at a 1:1 ratio, and then the total number of cells was counted using a hematocytometer. […] After staining, cells were observed and counted through a microscope, and then the number of immune cells with respect to the total number of cells was calculated to show the results as a graph. […]

The test system of another assay is MRC-5 cells. Description: Inhibition of LPS-induced inflammatory cytokine gene expression, RT-PCR, MRC-5 cells. The assay is classed as cell-based. The following applies: 5 μg/ml LPS, peptide 10, 50, 100, 500 μM, 24 hours, RT-PCR (FIG. 1). The protocol:
MRC-5 cells (lung fibroblast cells) were seeded at 3×10^5 cells/well in a 12-well plate and used in the experiment. After culturing for 1 day with a culture medium containing 10% FBS, the culture medium was replaced with a culture medium without containing FBS to induce starvation for 4 hours. A normal group without being treated with any substances, a group treated with 5 μg/ml of LPS (Sigma Aldrich) (negative control group), groups treated with 5 μg/ml of LPS and the peptide of Production Example 1 (10, 50, 100, 500 μM), and a group treated with 5 μg/ml of LPS and 10 μM of Dexamethasone (DEX) (positive control group) were treated with active substances and drugs respectively, and then RNA was extracted after 24 hours to carry out RT-PCR. RNA was extracted from MRC-5 cells using an easy-BLUE™ Total RNA extraction kit (Qiagen, Germany). The extracted RNA was converted into cDNA with RT-PCR premix (iNtRON Biotechnology, Seongnam, Korea). After preparing a reaction mixture with PCR premix (iNtRON Biotechnology, Seongnam, Korea) and primers for each gene, PCR was carried out using a PCR machine (Eppendorf, Germany). Next, the mRNA expression pattern was determined by agarose gel electrophoresis. The base sequences of the primers used in the experiment are listed in [Table 2] below.

A short description of assay [2]: BLM-induced pulmonary fibrosis model, body weight change. It is filed as in vivo. The following applies: BALB/c male mice with BLM-induced pulmonary fibrosis, peptide 1 mg/mouse intranasal three times a week for 14 days from 7th day (FIG. 13a). How it is done: as §1
The subject of assay [3] is BALB/c mice. Description: BLM-induced pulmonary fibrosis model, Masson's Trichrome staining of lung tissue collagen. The assay is classed as in vivo. The following applies: BALB/c male mice, peptide 1 mg/mouse intranasal three times a week for 14 days, 21st day, Trichrome staining (FIG. 15a, 15b). How it is done: as §1
The lung tissue obtained from mice subjected to the animal experiment was washed with PBS at room temperature and then fixed with 4% paraformaldehyde (PBS dilution). The fixed tissue was washed three times with PBS and dehydrated using an ethanol series having a concentration gradient of 70% to 100%. Next, the lung tissue sample was embedded and cut into slices having a thickness of 4 μm. The sliced specimen having a size of 4 μm, which was placed on a slide glass, was dewaxed and hydrated in an ethanol series having a concentration gradient. Staining was carried out for 10 minutes in each of Weigert's iron hematoxlin, a Biebrich scarlet-acid fuchsin solution, a Phosphomolybdic-phosphotungstic acid solution, and an aniline blue solution. […]

As for “KYLLVHRPYYRR [peptide of Production Example 1]”, in the assay with A549 cells, the “gene expression of COX-2” value was “decreases in a concentration-dependent manner”, the “gene expression of IL-1β” value was “decreases in a concentration-dependent manner”, the “gene expression of IL-6” value is recorded as “decreases in a concentration-dependent manner” and the “gene expression of IL-8” value is “decreases in a concentration-dependent manner”. The “gene expression of TNF-α” value in the assay with A549 cells is “decreases in a concentration-dependent manner”. In addition, in the assay on BALB/c mice [1], the “number of lymphocytes in bronchoalveolar lavage fluid” value was “decreased the increased number of macrophages and the increased number of lymphocytes”; the “number of macrophages in bronchoalveolar lavage fluid” value was “decreased the increased number of macrophages”. In addition, in the assay on MRC-5 cells, the “gene expression of IL-1β” value was “decreases in a concentration-dependent manner”, the “gene expression of IL-6” value is “decreases in a concentration-dependent manner”, the “gene expression of IL-8” value was “decreases in a concentration-dependent manner” and the “gene expression of TNF-α” value is “decreases in a concentration-dependent manner”. The body weight entry in assay [2] was “recovered again”. Besides, in the assay with BALB/c mice [3], the “degree of collagen deposition in the lung tissue” value was “significantly reduced”.
